Results: patent US20140228287A1, “1-[(3-CYANO-PYRIDIN-2-YL)METHYL]-3-METHYL-7-(2-BUTYN-1-YL)-8-[3-(R)-AMINO-PIPERIDIN-1-YL]-AXANTHINE FOR THE TREATMENT OF A METABOLIC DISORDER OF A PREDOMINANTLY CARNIVOROUS NON-HUMAN ANIMAL” (BOEHRINGER INGELHEIM VETMEDICA GMBH, priority 2010, published 2014)
Structures can show the parent of a compound that is named as a salt. Where two headings read alike, the source gives them in different places.

Biological target: T1, DPP IV (Felis catus, UniProt Q9N2I7)
T1 construct: Blood samples for the determination of this compound and DPP IV activity were collected; from tissue; host or cells: plasma of domestic short hair / purpose-bred cats dosed orally
Assay: Exploratory multiple dose PK/PD (1.0/3.0/9.0 mg/animal, 14 days) in cats: DPP IV activity
Assay type: in vivo, cat
Details: for response vs control in vivo at 1 mg/animal: head 1 mg/animal (title 1.0 mg/animal); for response vs control in vivo at 1 mg/animal / response vs control in vivo at 3 mg/animal / response vs control in vivo at 9 mg/animal: read-out: DPP IV activity in cat plasma; for response vs control in vivo at 3 mg/animal: head 3 mg/animal (title 3.0 mg/animal)
Experimental: The aim of this study was to investigate the PK/PD effects of 1-[(3-cyano-pyridin-2-yl)methyl]-3-methyl-7-(2-butyn-1-yl)-8-[3-(R)-amino-piperidin-1-yl]-xanthine in cats following repeated oral administration of 0, 1, 3 and 9 mg/animal over 14 days corresponding to a dose of 0, 0.25, 0.75 and 2.25 mg/kg body weight for a cat weighing 4 kg. (Dosages were based on the free base: 1 mg 1-[(3-cyano-pyridin-2-yl)methyl]-3-methyl-7-(2-butyn-1-yl)-8-[3-(R)-amino-piperidin-1-yl]-xanthine monohydrochloride corresponds to 0.923 mg 1-[(3-cyano-pyridin-2-yl)methyl]-3-methyl-7-(2-butyn-1-yl)-8-[3-(R)-amino-piperidin-1-yl]-xanthine free base).
For this purpose, twelve clinically healthy male adult domestic short hair cats with a body weight range of 3.5-4.8 kg were used. The animals were randomly allocated to 4 groups, 3 animals per group. All animals were treated once daily orally for 14 days (i.e. on days 0-13). The test article was administered via capsules at doses of 1 (group II), 3 (group III) or 9 (group IV) mg of the monohydrochloride compound per animal; group I received placebo serving as controls. Blood samples for PK and PD (DPP IV activity) investigations were drawn at 0 h (i.e. prior to the 1st treatment), 0.5, 1, 2, 4, 8, 12 and 24 h after the 1st treatment as well as 24 h after the 3rd, 5th, 7th, 9th, 11th and 13th treatment and 0.5, 1, 2, 4, 8, 12 and 24 h after the 14th treatment.

[1] = 72 h, once daily oral 14 days, 72 h
[2] = 120 h, once daily oral 14 days, 120 h
[3] = 168 h, once daily oral 14 days, 168 h
[4] = 216 h, once daily oral 14 days, 216 h
[5] = 264 h, once daily oral 14 days, 264 h
[6] = 312 h, once daily oral 14 days, 312 h
[7] = 312.5 h, once daily oral 14 days, 312.5 h
[8] = 313 h, once daily oral 14 days, 313 h
[9] = 314 h, once daily oral 14 days, 314 h
[10] = 316 h, once daily oral 14 days, 316 h
[11] = 320 h, once daily oral 14 days, 320 h
[12] = 324 h, once daily oral 14 days, 324 h
[13] = 336 h, once daily oral 14 days, 336 h

T1 sequence (Q9N2I7 38-765 limits assumed): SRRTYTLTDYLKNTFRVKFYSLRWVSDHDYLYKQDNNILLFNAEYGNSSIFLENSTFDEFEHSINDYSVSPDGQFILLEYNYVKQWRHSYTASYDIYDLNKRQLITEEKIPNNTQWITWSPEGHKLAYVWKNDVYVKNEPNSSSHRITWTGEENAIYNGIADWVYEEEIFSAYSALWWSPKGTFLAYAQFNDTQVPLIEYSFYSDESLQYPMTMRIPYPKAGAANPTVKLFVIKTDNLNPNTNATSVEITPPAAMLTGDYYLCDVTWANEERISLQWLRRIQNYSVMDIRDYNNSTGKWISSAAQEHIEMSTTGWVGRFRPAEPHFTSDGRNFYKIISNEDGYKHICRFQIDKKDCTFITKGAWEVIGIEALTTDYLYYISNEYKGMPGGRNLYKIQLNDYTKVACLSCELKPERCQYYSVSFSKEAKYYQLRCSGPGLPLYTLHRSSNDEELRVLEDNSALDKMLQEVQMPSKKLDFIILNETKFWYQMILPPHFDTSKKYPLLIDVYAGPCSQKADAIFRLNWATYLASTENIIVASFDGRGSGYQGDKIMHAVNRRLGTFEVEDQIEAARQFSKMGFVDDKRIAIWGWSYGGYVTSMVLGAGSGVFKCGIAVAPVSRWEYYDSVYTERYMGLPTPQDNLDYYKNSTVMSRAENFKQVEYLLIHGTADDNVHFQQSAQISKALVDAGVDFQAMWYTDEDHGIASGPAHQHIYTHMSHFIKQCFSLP

Work on CC#CCn1c(N2CCC[C@@H](N)C2)nc2c1c(=O)n(Cc1ncccc1C#N)c(=O)n2C [1-[(3-cyano-pyridin-2-yl)methyl]-3-methyl-7-(2-butyn-1-yl)-8-[3-(R)-amino-piperidin-1-yl]-xanthine monohydrochloride] yielded a response vs control in vivo at 1 mg/animal [1] of 35.3%, a response vs control in vivo at 3 mg/animal [1] of 23.3% and a response vs control in vivo at 9 mg/animal (72 h, head 9 mg/animal (title 9.0 mg/animal), once daily oral 14 days, 72 h) of 14.3%. The response vs control in vivo at 1 mg/animal [2] was 63%, the response vs control in vivo at 3 mg/animal [2] was 31.7% and the response vs control in vivo at 9 mg/animal (120 h, head 9 mg/animal (title 9.0 mg/animal), once daily oral 14 days, 120 h) was 17.7%. The response vs control in vivo at 1 mg/animal [3] was 54%, the response vs control in vivo at 3 mg/animal [3] was 41% and the response vs control in vivo at 9 mg/animal (168 h, head 9 mg/animal (title 9.0 mg/animal), once daily oral 14 days, 168 h) was 14.7%. For the same molecule, the response vs control in vivo at 1 mg/animal [4] was 57%, the response vs control in vivo at 3 mg/animal [4] was 31.7% and the response vs control in vivo at 9 mg/animal (216 h, head 9 mg/animal (title 9.0 mg/animal), once daily oral 14 days, 216 h) was 15%. The response vs control in vivo at 1 mg/animal [5] was 32.7%, the response vs control in vivo at 3 mg/animal [5] was 19.3% and the response vs control in vivo at 9 mg/animal (264 h, head 9 mg/animal (title 9.0 mg/animal), once daily oral 14 days, 264 h) was 14%. The response vs control in vivo at 1 mg/animal [6] was 61.3%, the response vs control in vivo at 3 mg/animal [6] was 34% and the response vs control in vivo at 9 mg/animal (312 h, head 9 mg/animal (title 9.0 mg/animal), once daily oral 14 days, 312 h) was 17.3%. The response vs control in vivo at 1 mg/animal [7] was 14%, the response vs control in vivo at 3 mg/animal [7] was 9% and the response vs control in vivo at 9 mg/animal (312.5 h, head 9 mg/animal (title 9.0 mg/animal), once daily oral 14 days, 312.5 h) was 10%. The response vs control in vivo at 1 mg/animal [8] was 14%, the response vs control in vivo at 3 mg/animal [8] was 8.3% and the response vs control in vivo at 9 mg/animal (313 h, head 9 mg/animal (title 9.0 mg/animal), once daily oral 14 days, 313 h) was 7.7%. It also gave a response vs control in vivo at 1 mg/animal [9] of 13.3%, a response vs control in vivo at 3 mg/animal [9] of 8.7% and a response vs control in vivo at 9 mg/animal (314 h, head 9 mg/animal (title 9.0 mg/animal), once daily oral 14 days, 314 h) of 7.7%. The response vs control in vivo at 1 mg/animal [10] was 14.7%, the response vs control in vivo at 3 mg/animal [10] was 9.7% and the response vs control in vivo at 9 mg/animal (316 h, head 9 mg/animal (title 9.0 mg/animal), once daily oral 14 days, 316 h) was 8%. It also gave a response vs control in vivo at 1 mg/animal [11] of 22.3%, a response vs control in vivo at 3 mg/animal [11] of 12.3% and a response vs control in vivo at 9 mg/animal (320 h, head 9 mg/animal (title 9.0 mg/animal), once daily oral 14 days, 320 h) of 10.3%. For the same molecule, the response vs control in vivo at 1 mg/animal [12] was 32.3%, the response vs control in vivo at 3 mg/animal [12] was 15% and the response vs control in vivo at 9 mg/animal (324 h, head 9 mg/animal (title 9.0 mg/animal), once daily oral 14 days, 324 h) was 12%. The response vs control in vivo at 1 mg/animal [13] was 67.7%, the response vs control in vivo at 3 mg/animal [13] was 31.3% and the response vs control in vivo at 9 mg/animal (336 h, head 9 mg/animal (title 9.0 mg/animal), once daily oral 14 days, 336 h) was 18.7%. For the same molecule, the “time up to which mean DPP IV values remained ≦20% after 1st treatment” value (group II (1 mg per animal)) was 8 h, the “time up to which mean DPP IV values remained ≦20% after the 14th treatment” value (group II (1 mg per animal)) was 4 h and the “minimum mean DPP IV values after treatment on day 0” value (“minimum mean DPP IV values” for short) (group II (1 mg per animal), at 1 h) was 9%. The “mean DPP IV activity, range 24 h after 3rd-13th treatment (72-312 h)” value (“mean DPP IV activity, range 24 h” for short) (group II (1 mg/cat)) was 33-63%, the “time up to which mean DPP IV values remained ≦20% after 1st treatment” value (group III (3 mg per animal)) was 12 h and the “time up to which mean DPP IV values remained ≦20% after the 14th treatment” value (group III (3 mg per animal)) was 12 h. The “minimum mean DPP IV values” value (group III (3 mg per animal), at 2 and 4 h) was 8%, the “mean DPP IV activity, range 24 h” value (group III (3 mg/cat)) was 19-41% and the “time up to which mean DPP IV values remained ≦20% after 1st treatment” value (group IV (9 mg per animal)) was 24 h. The “time up to which mean DPP IV values remained ≦20% after the 14th treatment” value (group IV (9 mg per animal)) was 24 h, the “minimum mean DPP IV values” value (group IV (9 mg per animal), at 1 and 2 h) was 7% and the “mean DPP IV activity, range 24 h” value (group IV (9 mg/cat)) was 14-18%. The “DPP IV activity in cat plasma” value (head 9 mg/animal (title 9.0 mg/animal), once daily oral 14 days, 312.5 h, monohydrochloride) was 10.0%.
